Active and inactive are the calls of the source. The calls are words filed in the database; no cut-off is given here.
What was measured:
[1] = biological target: T1, Peroxisome proliferator-activated receptor gamma (Homo sapiens) (UniProt P37231); assay: Agonist activity at Homo sapiens (human) PPARgamma LBD expressed in African green monkey CV-1 cells co-expressing GAL4 assessed as beta-galactosidase activity at 10 uM after 24 hr by luciferase reporter gene assay relative to rosiglitazone; type: cell-based
T1 sequence (whole entry): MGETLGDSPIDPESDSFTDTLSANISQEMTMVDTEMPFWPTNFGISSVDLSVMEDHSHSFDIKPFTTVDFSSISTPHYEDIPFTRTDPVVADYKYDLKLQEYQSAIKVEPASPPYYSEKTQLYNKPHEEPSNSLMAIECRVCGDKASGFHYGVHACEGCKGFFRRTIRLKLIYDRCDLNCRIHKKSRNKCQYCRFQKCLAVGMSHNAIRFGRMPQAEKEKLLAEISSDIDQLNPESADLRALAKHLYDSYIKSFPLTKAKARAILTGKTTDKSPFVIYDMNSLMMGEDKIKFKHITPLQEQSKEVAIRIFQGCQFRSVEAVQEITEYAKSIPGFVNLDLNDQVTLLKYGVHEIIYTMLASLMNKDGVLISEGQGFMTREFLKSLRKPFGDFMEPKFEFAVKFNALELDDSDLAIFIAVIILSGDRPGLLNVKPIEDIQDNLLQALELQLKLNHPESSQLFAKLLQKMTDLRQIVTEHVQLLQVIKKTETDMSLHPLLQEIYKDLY

[2] = biological target: T2, Type-1 angiotensin II receptor A (Rattus norvegicus, UniProt P25095); assay: Displacement of [125I]-SI-Ang-2 from AT1 receptor in Rattus norvegicus Sprague-Dawley (rat) liver membranes after 2 hr; design: species or system Membrane
T2 sequence (P25095 whole entry): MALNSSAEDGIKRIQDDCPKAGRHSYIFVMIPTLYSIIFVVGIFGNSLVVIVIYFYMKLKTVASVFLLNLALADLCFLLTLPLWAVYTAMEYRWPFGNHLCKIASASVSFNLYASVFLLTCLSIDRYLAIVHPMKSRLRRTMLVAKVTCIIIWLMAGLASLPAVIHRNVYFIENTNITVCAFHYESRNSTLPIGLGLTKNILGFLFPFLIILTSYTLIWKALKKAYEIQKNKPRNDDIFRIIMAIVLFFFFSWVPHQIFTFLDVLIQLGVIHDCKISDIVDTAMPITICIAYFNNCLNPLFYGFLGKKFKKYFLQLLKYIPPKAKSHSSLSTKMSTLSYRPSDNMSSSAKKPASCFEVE

3T3-L1 = assay: Induction of adipocyte differentiation in Mus musculus (mouse) 3T3L1 cells at 1 to 5 uM; type: functional, cell-based

COC(=O)c1ccc(-c2ccc(Cn3c(C)nc4ccc(-c5nc6ccccc6n5C)cc43)cc2)c(C(=O)OC)c1
%max [1]: 2.8% | Ki [2]: > 10 µM | Activity (3T3-L1): inactive

COC(=O)c1ccc(-c2ccc(Cn3cnc4ccc(-c5nc6ccccc6n5C)cc43)cc2)cc1
%max [1]: 3.6% | Ki [2]: > 10 µM | Activity (3T3-L1): inactive

CCCc1nc2c(C)cc(-c3nc4ccccc4n3C)cc2n1Cc1ccc(-c2ccccc2C(=O)O)cc1 [TELMISARTAN]
%max [1]: 21.2% | Ki [2]: 0.00023 µM | Activity (3T3-L1): Active

COC(=O)c1ccccc1-c1ccc(Cn2cnc3ccc(-c4nc5ccccc5n4C)cc32)cc1
%max [1]: 6.3% | Ki [2]: > 10 µM | Activity (3T3-L1): inactive

CCCc1nc2c(C)cc(-c3nc4ccccc4n3C)cc2n1Cc1ccc(-c2ccc(C(=O)OC)cc2C(=O)OC)cc1
%max [1]: 8% | Ki [2]: 0.65 µM | Activity (3T3-L1): inactive

CCCc1nc2c(C)cc(-c3nc4ccccc4n3C)cc2n1Cc1ccc(-c2ccc(C(=O)O)cc2C(=O)O)cc1
%max [1]: inactive | Ki [2]: 0.188 µM | Activity (3T3-L1): inactive

COC(=O)c1ccc(-c2ccc(Cn3cnc4ccc(-c5nc6ccccc6n5C)cc43)cc2)c(C(=O)OC)c1
%max [1]: 5.7% | Ki [2]: > 10 µM | Activity (3T3-L1): inactive

COC(=O)c1ccccc1-c1ccc(Cn2c(C)nc3ccc(-c4nc5ccccc5n4C)cc32)cc1
%max [1]: 6.8% | Ki [2]: > 10 µM | Activity (3T3-L1): inactive

COC(=O)c1ccccc1-c1ccc(Cn2cnc3c(C)cccc32)cc1
%max [1]: 4.7% | Ki [2]: > 10 µM | Activity (3T3-L1): inactive

COC(=O)c1ccc(-c2ccc(Cn3c(C)nc4ccc(-c5nc6ccccc6n5C)cc43)cc2)cc1
%max [1]: 7.3% | Ki [2]: > 10 µM | Activity (3T3-L1): inactive

Cn1c(-c2ccc3ncn(Cc4ccc(-c5ccccc5)cc4)c3c2)nc2ccccc21
%max [1]: 5.7% | Ki [2]: > 10 µM | Activity (3T3-L1): inactive

COC(=O)c1ccccc1-c1ccc(Cn2cnc3ccccc32)cc1
%max [1]: 1.8% | Ki [2]: > 10 µM | Activity (3T3-L1): inactive

From ChEMBL document CHEMBL3046017, “Design, synthesis, and docking studies of telmisartan analogs for the treatment of metabolic syndrome” (Med Chem Res, 2009)
